Source: ChEMBL document CHEMBL4118055, “Chemoenzymatic Synthesis and α-Glucosidase Inhibitory Activity of Dimeric Neolignans Inspired by Magnolol” (J Nat Prod, 2017)

Assays:
[1] = system: Saccharomyces cerevisiae; test: Inhibition of yeast alpha-glucosidase at 1.5 uM using p-nitrophenyl-alpha-glucopyranoside as substrate measured after 30 mins relative to control
[2] = Inhibition of yeast alpha-glucosidase using p-nitrophenyl-alpha-glucopyranoside as substrate measured after 30 mins; design: species or system Saccharomyces cerevisiae
[3] = Competitive-inhibition of yeast alpha-glucosidase using varying levels of p-nitrophenyl-alpha-glucopyranoside as substrate incubated for 20 mins measured at 1 min interval by Lineweaver-burk plot analysis; design: species or system Saccharomyces cerevisiae

SMILES | inhibition [1] [%] | IC50 [2] [nM] | Ki [3] [nM]
O=c1c(O)c(-c2ccc(O)c(O)c2)oc2cc(O)cc(O)c12 [QUERCETIN] | 5.3 | 14200 | –
COc1cc(CCO)cc(-c2cc(CCO)cc(O)c2O)c1O | – | > 100000 | –
OCCc1ccc(O)c(-c2cc(CCO)ccc2O)c1 | 76.9 | 860 | –
C=CCc1ccc(O)c(-c2cc(CC=C)ccc2O)c1 [MAGNOLOL] | 29.8 | 2000 | –
COc1cc(CCO)cc(-c2cc(CCO)cc(OC)c2O)c1O | – | > 100000 | –
C=CCc1ccc(O)c(-c2cc(CC=C)cc(O)c2O)c1 | 97.6 | 490 | –
C=CCc1ccc(O)c(-c2ccc(O)c(CC=C)c2)c1 [HONOKIOL] | 3.9 | 23000 | –
C[C@H]1O[C@H](O[C@H]2[C@H](O)[C@@H](O)[C@@H](O[C@H]3[C@H](O)[C@@H](O)C(O)O[C@@H]3CO)O[C@@H]2CO)[C@H](O)[C@@H](O)[C@@H]1N[C@H]1C=C(CO)[C@@H](O)[C@H](O)[C@H]1O (stereo partly specified) [ACARBOSE] | 0.7 | 270000 | –
C=CCc1cc(OC)c(O)c(-c2cc(CC=C)cc(OC)c2O)c1 | 46.7 | 2000 | –
C=CCc1cc(O)c(O)c(-c2cc(CC=C)cc(O)c2O)c1 | 36.7 | 2100 | –
CC(=O)OCCc1ccc(O)c(-c2cc(CCOC(C)=O)ccc2O)c1 | 98.9 | 150 | 860
C=CCc1cc(O)c(O)c(-c2cc(CC=C)cc(OC)c2O)c1 | 98 | 500 | –
COc1cc(CCOC(C)=O)cc(-c2cc(CCOC(C)=O)cc(O)c2O)c1O | 21.3 | 3300 | –
COc1cc(CCOC(C)=O)cc(-c2cc(CCOC(C)=O)cc(OC)c2O)c1O | 64.5 | 1100 | –
CC(=O)OCCc1cc(O)c(O)c(-c2cc(CCOC(C)=O)cc(O)c2O)c1 | 31.4 | 2900 | –
OCCc1cc(O)c(O)c(-c2cc(CCO)cc(O)c2O)c1 | 18.2 | 4100 | –
